{"source": "patent US20230050588A1", "about": "“ANTIOXIDANT OR SKIN STRESS INHIBITOR” (Shiseido Company, Ltd., priority 2020, published 2023)", "assay_type_in_all_cases": "cell-based", "design_in_all_cases": "key: ○ corresponds to genes whose expression is significantly changed; x corresponds to genes whose expression is not changed", "key": {"[1]": {"system": "AhR", "test": "Microarray gene expression in keratinocytes UV-irradiated through wavelength conversion substance: AhR", "conditions": "Normal Human Epidermal Keratinocytes; UV 100 mJ/cm^2 through substance solution without direct contact; 24 hours after irradiation; expression of AhR is reduced", "protocol": "(§1) The wavelength conversion substances of (1) and (2) were dissolved in water to prepare solutions at concentrations of 1% and 5%.\n(§2) The wavelength conversion substances of (3) and (4) were dispersed in alcohol to prepare 5% and 10% dispersions.\n(§3) 1. Normal Human Epidermal Keratinocytes (PromoCell) were used. A cell suspension (1 mL) stored with liquid nitrogen was placed in a hot water bath (37° C.) and thawed until small ice pellets remained, and then diluted with 9 mL of warm KGM medium. 2. The diluted suspension was gently mixed and transferred to a T75 flask, and incubated overnight at 37° C. 3. On the following day, the medium was exchanged with 10 mL of fresh medium. 4. The medium was periodically exchanged (once every 2 to 3 days), while continuing growth of the cells. During this time, a microscope was used to observe the cells and to confirm that the cells had proliferated with the proper form. 5. Once the cells reached approximately 80% confluence, they were subcultured. 6. Subculturing of the cells was carried out by rinsing and aspirating once in 10 mL of warm PBS. 7. 5 mL of warm trypsin was added to the T75 flask to cover the bottom of the flask with the trypsin solution, and the mixture was aspirated after standing for 1 minute at room temperature. 8. The flask was set in an oven at 37° C. for 5 minutes (maximum) for keratinocytes. […]"}, "[2]": {"system": "AHRR", "test": "Microarray gene expression in keratinocytes UV-irradiated through wavelength conversion substance: AHRR", "conditions": "Normal Human Epidermal Keratinocytes; UV 100 mJ/cm^2 through substance solution without direct contact; 24 hours after irradiation", "protocol": "as §1, §2, §3"}, "[3]": {"system": "HMOX1", "test": "Microarray gene expression in keratinocytes UV-irradiated through wavelength conversion substance: HMOX1", "conditions": "Normal Human Epidermal Keratinocytes; UV 100 mJ/cm^2 through substance solution without direct contact; 24 hours after irradiation", "protocol": "as §1, §2, §3"}}}
{"smiles": "Cc1cc2nc3c(=O)[nH]c(=O)nc-3n(C[C@H](O)[C@H](O)[C@H](O)CO)c2cc1C", "note": "[Vitamin B2, Riboflavin]", "values": [{"measurement": "AhR gene expression change (microarray)", "setting": "[1]", "result": "○"}, {"measurement": "AHRR gene expression change (microarray)", "setting": "[2]", "result": "○"}, {"measurement": "HMOX1 gene expression change (microarray)", "setting": "[3]", "result": "x"}]}
